# Data published in US8729286B2, “Platinum compounds as treatment for cancers, and related methods, kits, and compositions” (Massachusetts Institute of Technology, priority 2012, dated 2014).
# Entries after “also recorded” stand apart in the source; their conditions may differ.
# How the values were obtained:
# [1] = Solution stability in water at 37° C. by NMR spectroscopy; assay type: physicochemical; conditions: for stability in water (1H NMR spectra): up to 25 days; for half-life of decomposition in water: NMR, first-order fit
# Method: (§1) The stabilities of 1-5 in water and pH 7.4 phosphate buffered saline (PBS) at 37° C. were determined by NMR spectroscopy. […] Over the course of this reaction, the pH changed from 7.5 to 6.3. For 4, the rate of decomposition was quicker. […] The pH of this solution remained at 7.5 for the duration of the experiment.
# (§2) The platinum complexes were dissolved in water or pH 7.4 PBS containing 10% D2O to a typical concentration of 1 mM. The solutions were transferred to NMR tubes and incubated in a 37° C. water bath. ^1H and ^19F NMR spectra were obtained at various type points during the incubation. A small amount of 1,4-dioxane (δ=3.75 ppm) was included in the samples as an internal standard for referencing the ^1H NMR spectra and a sealed capillary containing aqueous KF (δ=−120.46 ppm) was used for referencing ^19F NMR spectra. The methyl group of 2 in the ^1H NMR spectra was integrated relative to the 1,4-dioxane reference at different time points and used for kinetic analyses. The trifluoromethyl group of 4 in the ^19F NMR spectra was integrated relative to the KF standard at different time points and used for kinetic analyses. Under the assumption of first-order kinetics, approximate half-lives were determined by fitting a line to a plot of ln [Pt] versus time and using the integrated first-order rate law, ln [Pt]=−kt+[Pt]o and the relationship, t1/2=ln 2/k, where [Pt]c, is the starting concentration of complex, k is the pseudo first-order rate constant, t is time, and t1/2 is the half-life. Water suppression for ^1H NMR spectra was accomplished with presaturation. The pH of the solutions was measured at the beginning and end of the desired incubation time using a DG-111-SG glass electrode calibrated with standard buffers.
# [2] = Solution stability in pH 7.4 PBS at 37° C. by NMR spectroscopy; assay type: physicochemical; conditions: for stability in pH 7.4 PBS (1H NMR spectra): up to 25 days; for half-life of decomposition in pH 7.4 PBS: NMR, first-order fit
# Method: as §1
# In pH 7.4 PBS, the rates of decomposition increased. The half-lives of 2 and 4 in this medium were 3.4 and 1.8 days, respectively. For 4, the final product was the same as that observed in the aquation in non-buffered water characterized by a ^19F NMR chemical shift at −76.6 ppm. […] Although the major final product was the same as that observed for the aquation in pure water (^1H δ=2.22 ppm), two other minor products were observed by ^1H NMR spectroscopy with CH3 proton resonances at 1.91 and 1.56 ppm.
# as §2
# [3] = tested on: HeLa (human cervical cancer); assay: MTT cytotoxicity assay, HeLa; assay type: cell-based; conditions: continuous 72 h
# Method: (§3) The cells were treated for a continuous 72 h period. The resulting 50% growth inhibitory concentration (IC50) values are summarized in Table 4 and graphically depicted in FIG. 5.
# (§4) HeLa (human cervical cancer), A549 (human lung cancer), U2OS (osteosarcoma), MCF-7 (human breast cancer) cells were grown as adherent monolayers in growth medium consisting of Dulbecco's Modified Eagle Medium (DMEM) supplemented with 10% fetal bovine serum (FBS) and 1% penicillin/streptomycin. The cultures were grown in 25 cm^2 flasks in an incubator at 37° C. with a humidified atmosphere composed of 5% CO2.
# (§5) Trypsinized cells were seeded into a 96-well plate at a cell density of 2000 cells/well in 200 μL of growth medium and incubated for 24 h. The medium was then removed and 200 μL new growth medium containing various concentrations of the platinum complexes was added. After 72 h, the medium was removed, 200 μL of a 0.8 mg/mL solution of MTT in DMEM was added, and the plate was incubated further for 4 h. The DMEM/MTT mixture was aspirated and 200 μL of DMSO with 10% pH 10.5 glycine buffer was added to dissolve the resulting purple formazan crystals. The absorbance of the plates was read at 555 nm. Absorbance values were normalized to the platinum-free control wells and plotted as [Pt] versus % viability. IC50 values were interpolated from the resulting curves. The reported IC50 values are the averages from at least three independent experiments, which each consisted of six replicates per concentration level.
# [4] = tested on: A549 (human lung cancer); assay: MTT cytotoxicity assay, A549; assay type: cell-based; conditions: continuous 72 h
# Method: as §3, §4, §5
# [5] = tested on: U2OS (human osteosarcoma); assay: MTT cytotoxicity assay, U2OS; assay type: cell-based; conditions: continuous 72 h
# Method: as §3, §4, §5
# [6] = tested on: MCF-7 (human breast cancer); assay: MTT cytotoxicity assay, MCF-7; assay type: cell-based; conditions: continuous 72 h
# Method: as §3, §4, §5
# [7] = tested on: HeLa cells; assay: Cellular uptake in HeLa cells by GFAAS; assay type: cell-based, human; conditions: 10 μM, 4 h exposure
# Method: The cellular uptake scales with the lipophilicity of the compound in an exponential fashion (FIG. 6). The most lipophilic complex, 5, is taken up to the largest extent (520±80 ng Pt/10^6 cells), whereas the least lipophilic complex is taken up to the least extent (6±2 ng Pt/10^6 cells).
# The total platinum uptake per cell was determined using slight modifications of a previously described protocol. In two 6-well plates, 3×10^5 cells per well were seeded in 3 wells with 2.5 mL of growth medium. In one of the plates, the additional 3 wells were filled with 2.5 mL of growth medium to act as blanks for non-specific platinum adsorption on the surface of the well. After incubating for 48 h, each well in the plate containing both cells and cell-free medium was treated with 0.278 mL of a 100-μM solution of the desired compound to give an exposure concentration of 10 μM. The cells and cell-free blanks were incubated with the Pt complex for 4 h. Meanwhile, the cells in the other plate were counted with trypan blue after detachment with trypsin in order to obtain the number of cells per well. After the 4 h incubation period, the growth medium was aspirated and all six wells were washed twice with 3 mL of pH 7.4 PBS and then treated with exactly 0.5 mL of hot (≈90° C.) concentrated nitric acid for 2 h. This nitric acid was analyzed by GFAAS to determine the total Pt content per well. The amount of Pt per cell was calculated by subtracting the average amount of Pt found in the blank wells from the average amount of Pt found in the cell-containing wells and normalizing to the average number of cells per well.
# [8] = tested on: nuclear DNA of HeLa cells; assay: Intracellular DNA platination in HeLa cells by GFAAS; assay type: cell-based, human; conditions: 100 μM for 4 h, then 16 h platinum-free medium
# Method: Because platinum-based drugs exert their cytotoxic effects by the formation of DNA cross-links, the extent to which 1-5 bind to intracellular DNA was measured. Cells were treated with 100 μM of the platinum complexes for 4 h and then incubated for an additional 16 h in platinum-free growth medium. The nuclear DNA was isolated, and the quantity of bound platinum was measured by GFAAS.
# Five million HeLa cells were seeded in a 100 mm Petri dish containing 9 mL of growth medium. On the following day, the cells were treated with the platinum complex at 100 μM concentration for 4 h. The growth medium was then replaced with platinum-free medium, and the cells were incubated for an additional 16 h. Cells, both floating and attached, were collected and combined. Trypsin (2 mL) was used to detach the cells. The combined cells were centrifuged for 5 min at 4° C., and the resulting cell pellet was washed twice with 3 mL of ice-cold PBS. DNAzol (1 mL, genomic DNA isolation reagent, MRC), containing 100 μg/mL RNase A, was used to lyse the cell pellet. DNA was precipitated with 0.5 mL of absolute ethanol, washed 2 times with 75% ethanol (0.75 mL), and redissolved in 200 μL of 8 mM NaOH. The DNA concentration was determined by UV-visible spectroscopy, and platinum was quantified by GFAAS. The reported values are the average of at least three independent experiments with the error reported as the standard deviation.
# [9] = Solubility observations; assay type: physicochemical; conditions: for solubility in water: water (cold water wash)
# [10] = tested on: HeLa, A549, U2OS, and MCF-7 cell lines; assay: MTT cytotoxicity assay, summary over the four cell lines; assay type: cell-based, human; conditions: 72 h, mean of HeLa, read-out: average IC50 value in the four cell lines tested
# Method: as §3, §4
# as §5, with “The reported IC50 values are the averages from at least three independent experiments, which each consisted of six replicates per concentration level.” left out
# [11] = tested on: NCI-60 tumor cell panel (60 cell lines); assay: NCI-60 tumor cell panel screen, single dose; assay type: cell-based; conditions: 10 μM single dose, 48 h, SRB assay, relative to complex-free control
# Method: (§6) Compound 4 was submitted to the NCI in July 2011 for single-dose testing in the NCI-60 tumor cell screen. These tests were carried out by the NCI using their established protocols.
# [12] = tested on: central nervous system (CNS) cancer cell lines; assay: NCI-60 tumor cell panel screen, CNS cancer cell lines; assay type: cell-based; conditions: 10 μM single dose, 48 h, SRB assay
# Method: as §6
# [13] = up 60 days; cited from earlier work
SMILES,HeLa Cellular Uptake [7] [ng Pt/10^6 cells],half-life of decomposition in water [1] [days],half-life of decomposition in pH 7.4 PBS [2] [days],solubility in aqueous and organic solvent ([9]; aqueous and organic solvent),solubility in water [9],stability in water (1H NMR spectra) [1],stability in pH 7.4 PBS (1H NMR spectra) [2],IC50 [3] [µM],IC50 [4] [nM],IC50 [5] [µM],IC50 [6] [µM],Pt/DNA [8] [pmol/µg],DNA platination [8],IC50 [10] [nM],average cell growth percentage of the 60 cell lines [11] [%],average cell growth in CNS cancer cell lines [12] [%],decomposition in water [13]
"CC1=CC(C)=[O+][Pt-2]([NH3+])([NH3+])[O]1.CC1=CC(C)=[O+][Pt-2]([NH3+])([NH3+])[O]1.O=S(=O)([O-])[O-] (stereo not shown) [Compound 1, [Pt(acac)(NH3)2](SO4)0.5]",6 ± 2,,,,,no changes; also recorded: no sign of decomposition,no changes; also recorded: no sign of decomposition,32 ± 5,28000 ± 9000,24 ± 2,76 ± 2,0.063 ± 0.012,,,,,
"CC1=CC(C(F)(F)F)=[O+][Pt-2]([NH3+])([NH3+])[O]1.CC1=CC(C(F)(F)F)=[O+][Pt-2]([NH3+])([NH3+])[O]1.O=S(=O)([O-])[O-] (stereo not shown) [Compound 2, [Pt(tfac)(NH3)2](SO4)0.5]",29 ± 9,58,3.4,low solubility,,,,2.9 ± 0.7,2200 ± 600,4.1 ± 0.8,15,0.30 ± 0.07,≈ 0.3 pmol Pt/μg DNA,,,,
N.N.O=C([O-])C1(C(=O)[O-])CCC1.[Pt+2] [carboplatin],,,,,,,,,,,,,,,,,no decomposition
"N.N.[Cl][Pt][Cl] [cisplatin, cis-diamminedichloroplatinum(II), reference compound]",14 ± 2,,,,,,,2.1 ± 0.1,3200 ± 600,5 ± 2,14 ± 3,1.58 ± 0.97,,,,,

# Second part, led by results:
HeLa Cellular Uptake [7] [ng Pt/10^6 cells],half-life of decomposition in water [1] [days],half-life of decomposition in pH 7.4 PBS [2] [days],solubility in aqueous and organic solvent ([9]; aqueous and organic solvent),solubility in water [9],SMILES,stability in water (1H NMR spectra) [1],stability in pH 7.4 PBS (1H NMR spectra) [2],IC50 [3] [µM],IC50 [4] [nM],IC50 [5] [µM],IC50 [6] [µM],Pt/DNA [8] [pmol/µg],DNA platination [8],IC50 [10] [nM],average cell growth percentage of the 60 cell lines [11] [%],average cell growth in CNS cancer cell lines [12] [%],decomposition in water [13]
83 ± 8,,,,only sparingly soluble in water,"CC1=CC(c2ccccc2)=[O+][Pt-2]([NH3+])([NH3+])[O]1.O=[N+]([O-])[O-] (stereo not shown) [Compound 3, [Pt(bzac)(NH3)2](NO3)]",no changes; also recorded: no sign of decomposition,no changes; also recorded: no sign of decomposition,24 ± 4,7000 ± 2000,8 ± 2,33 ± 6,0.35 ± 0.24,≈ 0.3 pmol Pt/μg DNA,,,,
160 ± 20,29,1.8,,only sparingly soluble in water,"O=[N+]([O-])[O-].[NH3+][Pt-2]1([NH3+])[O]C(C(F)(F)F)=CC(c2ccccc2)=[O+]1 (stereo not shown) [Compound 4, [Pt(tfbz)(NH3)2](NO3)]",,,3 ± 1,1300 ± 200,1.6 ± 0.5,4.3 ± 0.3,14 ± 3,,2600,89.65,64.52,
520±80,,,,,"O=[N+]([O-])[O-].[NH3+][Pt-2]1([NH3+])[O]C(c2ccccc2)=CC(c2ccccc2)=[O+]1 (stereo not shown) [Compound 5, [Pt(dbm)(NH3)2](NO3)]",no changes; also recorded: no sign of decomposition,no changes; also recorded: no sign of decomposition,6.7 ± 0.7,1300 ± 300,2.7 ± 0.7,3.1 ± 0.5,23 ± 10,,,,,
